Where a name gives a salt, the structure may show the parent alone. ± gives the standard deviation of the averaged measurements.

The subject of this experiment is SK-LMS-1. Briefly: relative viability vs DMSO control (72 h) (fraction); higher = more viable cells. In short, it runs like this:
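Sarcoma cell lines were grown in 384-well plates seeded toward 80–90% confluence and exposed 24 h later to serially diluted compound. After 72 h at 37 °C and 5% CO2, with 0.1% DMSO vehicle and a 5 µM positive control on the plates, ATPLite was read. Relative viability, given as percent growth averaged over up to triplicate wells, was rescaled so that 1 is full and 0 is none.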

Consider `CC(=O)Nc1cccc(-n2c(=O)n(C3CC3)c(=O)c3c(Nc4ccc(I)cc4F)n(C)c(=O)c(C)c32)c1` [Trametinib], for which the relative viability worked out at 1.01 ± 0.027 (0.00017 µM); 1.02 ± 0.06 (0.00051 µM); 1.06 ± 0.03 (0.00152 µM); 0.905 ± 0.034 (0.00457 µM); 0.575 ± 0.025 (0.01372 µM); 0.399 ± 0.01 (0.04115 µM). Moreover, the relative viability is, setting by setting: (0.1235 µM) 0.327 ± 0.0053; (0.3704 µM) 0.27 ± 0.0086; (1.111 µM) 0.25 ± 0.0039; (3.333 µM) 0.225 ± 0.0081; (10 µM) 0.193 ± 0.0022.

As for `C=CC(=O)N1CCC[C@@H](n2nc(-c3ccc(Oc4ccccc4)cc3)c3c(N)ncnc32)C1` [Ibrutinib], the relative viability is 1.04 ± 0.048 (0.00017 µM); 1.01 ± 0.058 (0.00051 µM); 1.02 ± 0.045 (0.00152 µM); 1.03 ± 0.04 (0.00457 µM); 1.04 ± 0.015 (0.01372 µM); 1.03 ± 0.016 (0.04115 µM). Further, the relative viability reads like this: (0.1235 µM) 1.05 ± 0.055; (0.3704 µM) 1.05 ± 0.028; (1.111 µM) 1.05 ± 0.012; (3.333 µM) 0.9551 ± 0.0066; (10 µM) 0.693 ± 0.032.

Consider `COc1cc2/c(=N/c3ccc(Br)cc3F)nc[nH]c2cc1OCC1CCN(C)CC1` [Vandetanib], for which the relative viability was found to be 0.994 ± 0.015 (0.00017 µM); 1.01 ± 0.029 (0.00051 µM); 1.02 ± 0.049 (0.00152 µM); 1.08 ± 0.015 (0.00457 µM); 1.02 ± 0.09 (0.01372 µM); 1.05 ± 0.039 (0.04115 µM). In addition, the relative viability amounted to 1.01 ± 0.015 (0.1235 µM); 1.03 ± 0.074 (0.3704 µM); 0.939 ± 0.011 (1.111 µM); 0.484 ± 0.0052 (3.333 µM); 0.103 ± 0.014 (10 µM).

Take `C[C@@H]1COCCN1c1cc(-c2ccnn2C)c2ccnc(-c3ccn[nH]3)c2n1`: the relative viability is, setting by setting: (0.00017 µM) 0.9973 ± 0.0066; (0.00051 µM) 0.992 ± 0.064; (0.00152 µM) 0.989 ± 0.033; (0.00457 µM) 1 ± 0.051; (0.01372 µM) 1 ± 0.024; (0.04115 µM) 0.928 ± 0.056. In addition, the relative viability is, setting by setting: (0.1235 µM) 0.785 ± 0.035; (0.3704 µM) 0.571 ± 0.016; (1.111 µM) 0.371 ± 0.025; (3.333 µM) 0.271 ± 0.0038; (10 µM) 0.234 ± 0.0024.

As to `COc1cccc2c1C(=O)c1c(O)c3c(c(O)c1C2=O)C[C@@](O)(C(=O)CO)C[C@@H]3O[C@H]1C[C@H](N)[C@H](O)[C@H](C)O1` [Doxorubicin Hydrochloride], the relative viability is, setting by setting: (0.00017 µM) 0.998 ± 0.032; (0.00051 µM) 1.02 ± 0.038; (0.00152 µM) 1.02 ± 0.044; (0.00457 µM) 1.03 ± 0.024; (0.01372 µM) 0.967 ± 0.047; (0.04115 µM) 0.781 ± 0.011. Moreover, the relative viability runs as follows: (0.1235 µM) 0.649 ± 0.046; (0.3704 µM) 0.313 ± 0.025; (1.111 µM) 0.209 ± 0.069; (3.333 µM) 0.296 ± 0.0043; (10 µM) 0.293 ± 0.0053.

Take `O=C(Nc1cnn2ccc(N3CCC[C@@H]3c3cc(F)ccc3F)nc12)N1CC[C@H](O)C1` [Larotrectinib]: the relative viability worked out at 1.12 ± 0.03 (0.00017 µM); 1.16 ± 0.051 (0.00051 µM); 1.13 ± 0.057 (0.00152 µM); 1.08 ± 0.015 (0.00457 µM); 1.07 ± 0.047 (0.01372 µM); 1.11 ± 0.025 (0.04115 µM). Besides, the relative viability came to 1.11 ± 0.028 (0.1235 µM); 1.06 ± 0.026 (0.3704 µM); 1.08 ± 0.03 (1.111 µM); 1.08 ± 0.032 (3.333 µM); 1.071 ± 0.0057 (10 µM).

With `Cc1cc(C)c(/C=C2\C(=O)Nc3ccccc32)[nH]1` [Semaxanib], the relative viability was 0.927 ± 0.045 (0.00017 µM); 0.907 ± 0.044 (0.00051 µM); 0.897 ± 0.025 (0.00152 µM); 0.878 ± 0.033 (0.00457 µM); 0.897 ± 0.053 (0.01372 µM); 0.874 ± 0.039 (0.04115 µM). Also, the relative viability came to 0.872 ± 0.02 (0.1235 µM); 0.894 ± 0.018 (0.3704 µM); 0.905 ± 0.027 (1.111 µM); 0.871 ± 0.033 (3.333 µM); 0.811 ± 0.013 (10 µM).

`CC1(C)CNc2cc(NC(=O)c3cccnc3NCc3ccncc3)ccc21` [Motesanib]: the relative viability by setting is: (0.00017 µM) 1.04 ± 0.042; (0.00051 µM) 1.02 ± 0.013; (0.00152 µM) 1.024 ± 0.0066; (0.00457 µM) 1.02 ± 0.016; (0.01372 µM) 1.06 ± 0.025; (0.04115 µM) 1.03 ± 0.033. The relative viability by setting is: (0.1235 µM) 1.02 ± 0.04; (0.3704 µM) 1.04 ± 0.027; (1.111 µM) 0.99 ± 0.037; (3.333 µM) 0.986 ± 0.017; (10 µM) 0.925 ± 0.02.

Regarding `Cc1nc(-c2cn3c(n2)-c2ccc(-c4cnn(C(C)(C)C(N)=O)c4)cc2OCC3)n(C(C)C)n1` [Taselisib], the relative viability runs as follows: (0.00017 µM) 0.978 ± 0.027; (0.00051 µM) 1.035 ± 0.0056; (0.00152 µM) 0.993 ± 0.043; (0.00457 µM) 0.9916 ± 0.0093; (0.01372 µM) 0.949 ± 0.021; (0.04115 µM) 0.833 ± 0.017. In addition, the relative viability was determined as 0.739 ± 0.018 (0.1235 µM); 0.676 ± 0.011 (0.3704 µM); 0.6 ± 0.023 (1.111 µM); 0.454 ± 0.012 (3.333 µM); 0.315 ± 0.016 (10 µM).

For `CC(C)NC(=O)C1CCC(n2c(NC(=O)c3ccc(F)cc3)nc3ccc(CN4CCC(C(C)(C)O)CC4)cc32)CC1` (stereo not drawn) [Belizatinib], the relative viability reads like this: (0.00017 µM) 1.05 ± 0.024; (0.00051 µM) 1.06 ± 0.021; (0.00152 µM) 1.06 ± 0.039; (0.00457 µM) 1.07 ± 0.04; (0.01372 µM) 1.07 ± 0.069; (0.04115 µM) 1.11 ± 0.046. The relative viability runs as follows: (0.1235 µM) 1.09 ± 0.023; (0.3704 µM) 1.04 ± 0.074; (1.111 µM) 0.949 ± 0.05; (3.333 µM) 0.758 ± 0.018; (10 µM) 0.38 ± 0.021.

On to `C=CC(=O)Nc1cccc(Oc2nc(Nc3ccc(N4CCN(C)CC4)cc3)nc3ccsc23)c1` [Olmutinib], for which the relative viability runs as follows: (0.00017 µM) 1.06 ± 0.047; (0.00051 µM) 1.08 ± 0.013; (0.00152 µM) 1.07 ± 0.044; (0.00457 µM) 1.076 ± 0.006; (0.01372 µM) 1.09 ± 0.029; (0.04115 µM) 1.06 ± 0.015. Also, the relative viability stood at 1.08 ± 0.013 (0.1235 µM); 1.05 ± 0.04 (0.3704 µM); 0.976 ± 0.033 (1.111 µM); 0.843 ± 0.016 (3.333 µM); 0.113 ± 0.03 (10 µM).

The compound `CNC(=O)c1cc(Oc2ccc(NC(=O)Nc3ccc(Cl)c(C(F)(F)F)c3)c(F)c2)ccn1` [Regorafenib] showed a relative viability (0.00017 µM) of 1.12 ± 0.046; a relative viability (0.00051 µM) of 1.11 ± 0.018; a relative viability (0.00152 µM) of 1.12 ± 0.082; a relative viability (0.00457 µM) of 1.11 ± 0.03; a relative viability (0.01372 µM) of 1.17 ± 0.053; a relative viability (0.04115 µM) of 1.08 ± 0.073. Also, the relative viability is 1.11 ± 0.079 (0.1235 µM); 1.05 ± 0.036 (0.3704 µM); 0.938 ± 0.066 (1.111 µM); 0.719 ± 0.035 (3.333 µM); 0.0852 ± 0.017 (10 µM).

On to `COc1cc2c(cc1O)CCN[C@]21CS[C@@H]2c3c(OC(C)=O)c(C)c4c(c3[C@H](COC1=O)N1[C@@H]2[C@H]2c3c(cc(C)c(OC)c3O)C[C@@H]([C@@H]1O)N2C)OCO4` [Trabectedin], for which the relative viability is, setting by setting: (2 pM) 1.06 ± 0.08; (5 pM) 1.04 ± 0.026; (15 pM) 1.03 ± 0.043; (50 pM) 1.06 ± 0.045; (0.00014 µM) 1.07 ± 0.052; (0.00041 µM) 0.848 ± 0.04. Further, the relative viability reads like this: (0.0012 µM) 0.255 ± 0.014; (0.0037 µM) 0.332 ± 0.006; (0.011 µM) 0.35 ± 0.014; (200 fM) 1.03 ± 0.076; (600 fM) 1.06 ± 0.048.
